From patent publication US9908890B2, “Selective inhibitors of constitutive androstane receptor” (ST. JUDE CHILDREN'S RESEARCH HOSPITAL, priority 2014, dated 2018)

How the values were obtained:
hCAR1 = target: T1, hCAR1 (Homo sapiens, UniProt Q14994); assay: Cell-based inverse agonist assay (CYP2B6-luciferase reporter in HepG2 cells transfected with hCAR1); details: 24 h treatment; read-out: IC50, inhibition of CAR-mediated CYP2B6-luciferase activity
T1 construct: expressed in transfected cells; host or cells: HepG2 (transient transfection)
T1 sequence (Q14994 1-348 isoform Q14994-2): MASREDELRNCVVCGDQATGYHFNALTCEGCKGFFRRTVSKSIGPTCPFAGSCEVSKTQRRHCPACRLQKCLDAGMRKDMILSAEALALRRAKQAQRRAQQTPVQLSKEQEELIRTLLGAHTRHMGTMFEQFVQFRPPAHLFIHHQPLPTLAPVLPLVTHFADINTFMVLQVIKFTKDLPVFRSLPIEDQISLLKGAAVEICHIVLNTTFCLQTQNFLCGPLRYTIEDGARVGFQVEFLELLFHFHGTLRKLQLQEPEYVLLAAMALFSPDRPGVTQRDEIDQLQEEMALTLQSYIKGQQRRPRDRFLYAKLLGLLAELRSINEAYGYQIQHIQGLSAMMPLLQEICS
Procedure: HepG2 cells grown in flasks were transfected with Flag-hCAR1 and CYP2B6-luciferase reporter at a 1:3 ratio with Fugene HD (Promega) and incubated for 24 h. Cells were trypsinized and plated in 384-well plates (CulturPlate-384, PerkinElmer) at 5000 cells/well for the primary or secondary screening assays. Cells were treated with chemicals transferred by using a pintool 24 h prior to measuring reporter luciferase activity with SteadyLite firefly luciferase reagent and an EnVision plate reader (PerkinElmer). […] PXR activity was measured in HepG2 cells stably transfected with hPXR and CYP3A4-luciferase reporter (previously described as PXR Clonel cells, see Li, G., et al. (2012) Tox. Appl. Pharm. 258, 268-274; and Lin, W., et al. (2008) J. Biol. Chem. 283, 30650-30657). […] The luminescence signal was detected by using an Envision plate reader (PerkinElmer) and used to calculate the percentage of PXR activation. […] A flowchart of our screening strategy is illustrated in FIG. 1A. HepG2 cells were transiently transfected with pcDNA-hCAR1 and CYP2B6-luciferase plasmids and treated with varying concentrations of the test compounds in 384-well plates for 24 h, and CAR-mediated luciferase activity was measured. Twenty-five hits, defined as those displaying dose-responsive inhibitory effect on the constitutively active hCAR1, were selected and tested in various secondary screening assays. CINPA1 (FIG. 1B) was selected based on its potent inhibitory effect on hCAR1 and lack of detectable agonistic activity against PXR.

[1] = tested on: FXR, GR, LXRα, LXRβ, PPARγ, RXRα, RXRβ, VDR; assay: GeneBLAzer nuclear receptor assays; type: cell-based; details: 18 μM
Procedure: FIG. 3B-FIG. 31 show representative data for treatment of GeneBLAzer® cells treated with DMSO (negative control), a predetermined concentration of the indicated nuclear receptor (“NR”) antagonist (positive control; concentration as detailed in Examples), or 18 μM of CINPA1 in the presence or absence the indicated NR agonist (i.e., indicated below treatments). NR-mediated β-lactamase activity was measured as a FRET ratio after 24 h treatment. Data is presented as % Activity, determined by setting the maximum FRET signal obtained for each receptor (in the respective agonist+DMSO wells) to 100%. eGugg=e Guggulsterone, Feno=Fenofibrate, GW9=GW9662, 22HC=22(S)-hydroxycholesterol, 9-cis RA=9-cis retinoic acid.
GeneBLAzer® cells individually expressing the ligand-binding domains of either FXR, GR, LXRα, LXRβ, PPARγ, RXRα, RXRβ, or VDR fused to the GAL4-DNA binding domain (GAL4-DBD) were obtained from Life Technologies (Li, G., et al. (2012) Tox. Appl. Pharm. 258, 268-274; and Yu, D. D., et al. (2013) Bioorg. Med. Chem 21, 4266-4278). Upon activation with the respective agonist, β-lactamase is expressed under the transcriptional control of an Upstream Activator Sequence (UAS), and a FRET-based substrate (CCF2-AM) is used to measure the enzyme activity of β-lactamase.

[2] = tested on: CAR-regulated genes in LS174T cells; assay: Quantitative real-time PCR in LS174T cells; type: cell-based; details: 1 μM CINPA1 or 5 μM PK11195, 24 h
Source text: (§1) RNA was extracted, cDNA synthesized, and gene expression analyzed by performing real-time PCR using Taqman probes for each gene. […] LS174T cells were maintained in 10% charcoal-dextran-treated, FBS media for 4 days before the experiment. […] Briefly, human primary hepatocytes (HPH) were maintained in William's E media with supplements for 4 days before treatment. […] RNA extracted was used for cDNA synthesis and measured by performing quantitative real-time PCR assays with Taqman probes.
Briefly, LS174T were maintained in 10% charcoal-dextran treated-FBS media for 4 days prior to the experiment. […] For the data shown in both FIG. 12A and FIG. 12B, RNA extracted was used for cDNA synthesis and measured by quantitative real-time PCR with Taqman probes. MDR1 mRNA was normalized to the internal control 18S and DMSO treated samples were set to 1. *, p<0.05 when compared to DMSO samples.
(§2) Cell lines or human hepatocytes were treated with chemicals for 24-48 hours before RNA was extracted and purified by using the Maxwell 16LEV simplyRNA tissue kit (Promega). Then, cDNA was prepared from 2 μg of RNA, and diluted cDNA was used to perform quantitative RT-PCR assays by using TaqMan probes (ABI; 7500 Thermocycler) with 18S as the internal standard.

[3] = tested on: CAR- and PXR-regulated genes in human primary hepatocytes; assay: Quantitative real-time PCR in human primary hepatocytes; type: cell-based; details: 48 h
Source text: as §1
Briefly, human primary hepatocytes (donor 5) were maintained in William's E Media with supplements for 4 days prior to treatment. […] RNA extracted was used for cDNA synthesis and measured by quantitative real-time PCR with Taqman probes. CYP2B6 and CYP3A4 mRNA were normalized to the internal control 18S and DMSO-treated samples were set to 1.
as §2

CAR protein = assay: Western blot of CAR protein in human primary hepatocytes; type: cell-based; details: 5 μM CINPA1, 48 h
Procedure: Briefly, CAR binding to PGC-1α coactivator peptide was determined by using the LanthaScreen® fluorescent coregulator peptide assay. Fluorescein-labeled PGC-1α peptide (125 nM) was complexed with GST-hCAR-LBD (5 nM) and Tb-anti-GST antibody (5 nM) as described in Experimental Procedures. […] Lysates were prepared, and CAR expression was analyzed by Western blot using CAR monoclonal antibody (Clone N4111, R&D Systems). β-actin was used as a loading control. […] Briefly, U2OS cells were transfected to express FLAG-hCAR1. […] Secondary antibody labeled with Alexa Fluor® 555 dye was used to visualize FLAG-tagged hCAR1 (shown in the second column) using a NikonC 1Si microscope. Nuclei were stained with DAPI (shown in the first column).

For `CCOC(=O)Nc1ccc2c(c1)N(C(=O)CN(CC)CC)c1ccccc1CC2` [CINPA1], which IC50 (hCAR1) is on record?
Its IC50 is 72 nM.

And the “attenuation of agonist-induced receptor activation” value ([1]; with NR agonist)?
The value was “did not attenuate the agonist-induced activation of any of the receptors tested”.

And the “activation of nuclear receptors” value ([1]; without agonist)?
The value was “did not activate any of the nuclear receptors tested”.

What about the “CYP2B6 mRNA level” value [2] of the same molecule?
Its value is “moderately reduced the levels of CYP2B6”.

What about the “CYP3A4 mRNA level” value [2] of the same molecule?
Its value is “without significantly affecting CYP3A4”.

And the “MDR1 mRNA level” value [2]?
The value was “reduced MDR1 levels”.

And the “CITCO-induced CAR transactivation of the CYP2B6 gene” value ([3]; 1 μM CITCO plus CINPA1 (5, 1 or 0.3 μM for Donor 1, 2, 3))?
Its value is “effectively inhibited”.

What about the “rifampicin-induced PXR-mediated gene expression” value ([3]; 5 μM CINPA1 with 10 μM rifampicin) of the same molecule?
The value was “could not reduce”.

What about the CAR protein level (CAR protein) of the same molecule?
The CAR protein level was “had no effect”.
